This note sets out measurements from PubChem BioAssay (NCI).

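Each compound was tested at five concentrations against cells in 96-well plates for 48 hours. TGI is the concentration that stops growth completely.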 Activity calls are given as the source filed them. Rule as the data show it: active = GI50 below about 0.43 µM; inactive = the rest. Where a SMILES comes first, the peptide text is derived from it. Side-chain parts run from the residue outwards. The star is where a group is joined. Cbz = O=C(OCc1ccccc1)*; Boc = CC(C)(C)OC(=O)*

Assay in all cases: NCI anticancer screen, dose series, 48 h
The test system of assay [1] is LOX IMVI melanoma.
Assay [2] concerns HCT-116 colon.
Assay [3] has as its system SK-OV-3 ovarian.
The test system of assay [4] is RXF 393 renal.
For assay [5], the system named is CCRF-CEM leukemia.
Assay [6] relates to MDA-MB-435.
Assay [7] deals with COLO 205 colon.
In assay [8] the test system is HCC-2998 colon.

Regarding `O=c1[nH]c(=O)n(COCc2ccccc2)c2ccccc12`, the TGI in assay [1] is above 100 µM; in assay [2] it was above 100 µM; in assay [3], above 100 µM; in assay [4], 94.5 µM; in assay [5] it was above 100 µM; in assay [6] it was above 100 µM. For the same compound, in assay [7], the TGI was above 100 µM.

Take `N#CCc1nc2cc(C(F)(F)F)ccc2s1`: the TGI in assay [1] is 80.2 µM; in assay [2] it was 95.2 µM; in assay [3] it was above 100 µM; in assay [4], above 100 µM; in assay [6], above 100 µM; in assay [7] it was above 100 µM.

`O=C(c1ccccc1O)c1cc(-c2ncc3c(=O)c4ccccc4oc3n2)c(-c2ccccc2O)[nH]c1=O`: the TGI in assay [1] was 39.1 µM; in assay [2], 47.4 µM; in assay [3] it was 85.2 µM; in assay [4] it was 93.4 µM; in assay [5], 69.3 µM; in assay [7], above 100 µM. This compound also registered a TGI in assay [8] of 38.2 µM.

As to `O=C(NNS(=O)(=O)c1ccccc1)c1csc(NC(=S)NC2CCCCC2)n1`, the TGI in assay [1] was 33.9 µM; in assay [2] it was 36 µM; in assay [3], above 100 µM; in assay [5], above 100 µM; in assay [6] it was 43.3 µM; in assay [7], 43.3 µM. In assay [8], the TGI is above 100 µM.

For the compound `COc1ccc(CCCN2c3ccccc3Sc3ccccc32)cc1`, the TGI in assay [1], in assay [2], in assay [3], in assay [4], in assay [5] and in assay [7] was above 100 µM throughout. The TGI in assay [8] is above 100 µM.

In the case of `Cc1ccc(C#CS(=O)(=O)C(F)(F)F)cc1`, the TGI was above 31.6 µM in assay [1]; above 100 µM in assay [2]; above 100 µM in assay [3]; above 100 µM in assay [4]; above 100 µM in assay [5]; above 100 µM in assay [7]. In assay [8], this compound registered a TGI above 100 µM.

As for `COc1ccc(C2=C(Cl)c3cc(OC)c(OC)cc3C2)cc1OC`, the TGI in assay [2] was above 100 µM; in assay [3], above 100 µM; in assay [4], 73.7 µM; in assay [5], above 100 µM; in assay [7], above 100 µM; in assay [8], above 100 µM.

Regarding `NCCS(=O)(=O)O`, the TGI in assay [1], in assay [2], in assay [5], in assay [6], in assay [7] and in assay [8] was above 100 µM each time.

As for `C[N+]1([O-])[C@H]2CC(OC(=O)[C@H](CO)c3ccccc3)C[C@H]1[C@H]1O[C@H]12` (stereo partly drawn), the TGI in assay [1], in assay [2], in assay [3], in assay [4], in assay [5] and in assay [6] was above 100 µM throughout. The TGI in assay [7] is above 100 µM.

For the compound `O=S1(=O)OCCCOS(=O)(=O)C1(Br)Br`, the TGI in assay [1], in assay [2], in assay [3], in assay [4], in assay [5] and in assay [6] was above 100 µM throughout. For the same compound, in assay [7], the TGI is above 100 µM.

Turning to `CC(C)(C)OC(=O)NC(CCCCNC(=O)CNC(=O)OCc1ccccc1)C(=O)NC(CCCCNC(=O)CNC(=O)OCc1ccccc1)C(=O)NC(CCCCNC(=O)CNC(=O)OCc1ccccc1)C(=O)NC(CCCCNC(=O)CNC(=O)OCc1ccccc1)C(=O)O` (stereo not drawn) (Boc-K([Gly-Cbz])K([Gly-Cbz])K([Gly-Cbz])K([Gly-Cbz])-OH; configuration not given here), the TGI in assay [1], in assay [2], in assay [5] and in assay [8] was above 100 µM each time.

Turning to `CC1CCOc2ccc(cc2)C=Nc2ccc(cc2)-c2ccc(cc2)N=Cc2ccc(cc2)OCC1` (stereo not drawn), the TGI in assay [1], in assay [2], in assay [3], in assay [5], in assay [6] and in assay [7] was above 100 µM in each case. This compound registered a TGI in assay [8] above 100 µM.

As for `COc1ccc([C@H]2c3cc4c(cc3OC(O)(CO)[C@H]2C(=O)O)OCO4)c(OC)c1` (stereo partly drawn) (tested in a mixture with another compound), the TGI in assay [1], in assay [2], in assay [3], in assay [4], in assay [5] and in assay [7] was above 100 µM in each case. This compound also returned a TGI in assay [8] above 100 µM.

Consider `O=P(O)(O)CN1CCNCCN(CP(=O)(O)O)CCN(CP(=O)(O)O)CCNCC1`, for which the result in assay [3], in assay [4], in assay [5] and in assay [6] was inactive.

As to `CN(/N=C/c1ccc(Cl)cc1)C1=NCCCCN1`, the TGI in assay [1], in assay [2], in assay [3], in assay [5], in assay [6] and in assay [7] was above 100 µM each time. The compound also returned a TGI in assay [8] above 100 µM.

Take `COc1cc2c(c(OC)c1OC)-c1ccc(SC)c(=O)cc1[C@@H](NCc1cccc([N+](=O)[O-])c1)CC2`: the TGI was 38.1 µM in assay [1]; below 0.01 µM in assay [2]; above 100 µM in assay [3]; above 100 µM in assay [5]; below 0.01 µM in assay [7]; below 0.01 µM in assay [8].

For the compound `C1=CN2C[n+]3ccc4ccccc4c3N=C2c2ccccc21`, the TGI in assay [2] was above 100 µM; in assay [3], 47.8 µM; in assay [5], 23.7 µM; in assay [6], 7.24 µM; in assay [7], 4.26 µM.

For `O=c1[nH]nc(Cc2ccc(Cl)cc2)n1/N=C/c1c[nH]c2ccccc12`, the TGI in assay [1], in assay [2], in assay [3], in assay [5], in assay [6] and in assay [8] was above 100 µM throughout.
